Here are results for nine molecules from patent US20160304547A1, “MACROLIDE COMPOUND” (PULIKE BIOLOGICAL ENGINEERING, INC, priority 2013, published 2016).

The structures appear in SMILES notation. In brackets after ≈: the same amount, converted by molar mass. Where two headings read alike, the source gives them in different places.

The nature of data set [1]: Acute toxicity test of compound Syzx-24, single gastric perfusion. As to conditions: Balb/c mice, 2000 mg/kg once by gastric perfusion, 6 h after administration.
Data set [2] relates to Streptococcus equines CVCC556. As to the kind of experiment: MIC by mini broth dilution technique (in vitro susceptibility). It is filed as cell-based. The method, then: (§1) in vitro tests of susceptibility of the compounds according to the present disclosure against bacterial strains commonly used in laboratories. In accordance with the Performance Standards for Antimicrobial Disk Susceptibility Tests: Approved Standard published by the US National Committee for Clinical Laboratory Standards, the antibactetial activities of compounds prepared according to examples 5 to 187 were tested. The MICs (minimum inhibitory concentration) of the medicaments prepared according to the examples on the following bacterial strains were measured through mini broth dilution technique. Staphylococcus aureus CVCC26003, Streptococcus equines CVCC556. Actinobacillus pleuropneumoniae CVCC262, Haemophilus parasuis, and Pasteurella multocida CVCC399, which were purchased from the Control Institute of Veterinary Bioproducts and Pharmaceuticals, China. Liquid culture medium: […] Solid culture medium: […] The strains were taken out of a regrigerator at −20° C. to be revived, and were spreaded by streaking on the solid culture medium with an inoculating loop. The inoculated culture medium was cultured at 35° C. in a constant temperature incubator for 20 h. Monoclonal antibodies were selected from a well-grown culture plate and streaked on the solid culture medium. The inoculated culture medium was cultured at 35° C. in the constant temperature incubator for 20 h. […] A 96-well plate was used, and 100 μl of DMSO was added into each of wells 2 to 11, and 200 μl of ready-prepared medicament solution was added into the 1st well, 100 μl of the medicament solution was extracted from the 1st well and added into the 2nd well. Double dilution was performed until the 11th well, thereby forming 11 gradients. In this case, compound of parent plate was prepared. 3 μl of double diluted medicament solution was extracted with a 12-channel pipettor and added into wells 1-11 of a new disposable 96-well culture plate. The 12th well thereof is a controll well. For each medicament, there are two adjacent rows which are parallel. The transferred compound plate was reserved for later use. […] The dilution ratio was recorded, and the bacterial liquid for the tests was diluted according to the recorded dilution ratio. Subsequently, the bacterial suspension and the liquid culture medium were diluted in the proportion of 1:200. The diluted solution was reserved for later use.
A general note: Dilution methods test growth across graded concentrations, often in twofold steps.

For data set [3], the system named is Actinobacillus pleuropneumoniae CVCC262. The data set is described as above. It is filed as cell-based. The protocol: as §1
For data set [4], the system named is Pasteurella multocida CVCC399. The description is as above. It is filed as cell-based. The protocol:
as §1

For data set [5], the system named is Haemophilus parasuis. The data set is described as above. It is filed as cell-based. As to conditions: Glaesserella parasuis, read-out: MIC values Haemophilus parasuis. The protocol:
as §1

Data set [6] deals with Staphylococcus aureus CVCC26003. Described as above. It is filed as cell-based. The method, then:
in vitro tests of susceptibility of the compounds according to the present disclosure against bacterial strains commonly used in laboratories. In accordance with the Performance Standards for Antimicrobial Disk Susceptibility Tests: Approved Standard published by the US National Committee for Clinical Laboratory Standards, the antibactetial activities of compounds prepared according to examples 5 to 187 were tested. The MICs (minimum inhibitory concentration) of the medicaments prepared according to the examples on the following bacterial strains were measured through mini broth dilution technique. Staphylococcus aureus CVCC26003, Streptococcus equines CVCC556. Actinobacillus pleuropneumoniae CVCC262, Haemophilus parasuis, and Pasteurella multocida CVCC399, which were purchased from the Control Institute of Veterinary Bioproducts and Pharmaceuticals, China. Liquid culture medium: CAMHB. […] Solid culture medium: NINA prepared according to the specification of the final product. The strains were taken out of a regrigerator at −20° C. to be revived, and were spreaded by streaking on the solid culture medium with an inoculating loop. The inoculated culture medium was cultured at 35° C. in a constant temperature incubator for 20 h. Monoclonal antibodies were selected from a well-grown culture plate and streaked on the solid culture medium. The inoculated culture medium was cultured at 35° C. in the constant temperature incubator for 20 h. […] A 96-well plate was used, and 100 μl of DMSO was added into each of wells 2 to 11, and 200 μl of ready-prepared medicament solution was added into the 1st well, 100 μl of the medicament solution was extracted from the 1st well and added into the 2nd well. Double dilution was performed until the 11th well, thereby forming 11 gradients. In this case, compound of parent plate was prepared. 3 μl of double diluted medicament solution was extracted with a 12-channel pipettor and added into wells 1-11 of a new disposable 96-well culture plate. The 12th well thereof is a controll well. For each medicament, there are two adjacent rows which are parallel. The transferred compound plate was reserved for later use. […] The dilution ratio was recorded, and the bacterial liquid for the tests was diluted according to the recorded dilution ratio. Subsequently, the bacterial suspension and the liquid culture medium were diluted in the proportion of 1:200. The diluted solution was reserved for later use.

For data set [7], the system named is Streptococcus pneumoniae CMCC 31203. Description: In vivo antibacterial test, survival of infected BALB/c mice. As to conditions: CMCC31203, sc, 168 h, read-out: Animal survival rate.
[8] abbreviates: Streptococcus equines CVCC556, broth dilution, read-out: MIC values Streptococcus equines CVCC556.
Where [9] appears, read: Actinobacillus pleuropneumoniae CVCC262, broth dilution, read-out: MIC values Actinobacillus pleuropneumoniae CVCC262.
[10] abbreviates: Pasteurella multocida CVCC399, broth dilution, read-out: MIC values Pasteurella multocida CVCC399.
Where [11] appears, read: Haemophilus parasuis, broth dilution.
The mark [12] stands for this setting: Staphylococcus aureus CVCC26003, broth dilution, read-out: MIC values Staphylococcus aureus CVCC26003.
[13] abbreviates: BALB/c mice infected i.p. with Streptococcus pneumoniae, 5 mg per kg s.c. via neck for 3 consecutive days, deaths recorded until the seventh day.

For the molecule `CC[C@H]1OC(=O)[C@H](C)[C@@H](O[C@H]2C[C@@](C)(OC)[C@](O)(CN(C)C)[C@H](C)O2)[C@H](C)[C@@H](O[C@@H]2O[C@H](C)C[C@H](N(C)C)[C@H]2O)[C@](C)(O)C[C@@H](C)NC[C@H](C)[C@@H](O)[C@]1(C)O` [syzx-24], in data set [1], the Death rate amounted to 0% and the “Number of dead animals/total number of animals” value is 0/4.
For orientation: MIC means the smallest concentration in the dilution series that meets the test's criterion for growth inhibition. `CC[C@@H]1OC(=O)[C@H](C)[C@H](OC2C[C@@](C)(OC)[C@](O)(CNCC(C)C)[C@H](C)O2)[C@@H](C)[C@@H](O[C@@H]2O[C@H](C)C[C@H](N(C)C)[C@H]2O)[C@](C)(O)C[C@@H](C)NC[C@@H](C)[C@H](O)[C@]1(C)O` (stereo partly drawn) [syzx-12, (2R,3S,4R,5S,8R,10R,11R,12S,13S,14R)-13-[(2,6-dideoxy-3-C-methyl-3-O-methyl-4-C-[(isobutylamino)methyl]-α-L-ribopyranosyl)oxy]-2-ethyl-3,4,10-trihydroxy-3,5,8,10,12,14-hexamethyl-11-[[3,4,6-trideoxy-3-(dimethylamino)-β-D-xylo-hexopyranosy]oxy]-1-oxa-7-azacyclopentadecan-15-one]: the MIC in data set [2] (setting [8]), in data set [3] (setting [9]), in data set [4] (setting [10]), in data set [5] (setting [11]) and in data set [6] (setting [12]) was at most 0.25 µg/mL each time. In addition, the responders at 5 mg/kg in data set [7] (setting [13]) amounted to 70%.
Take `CCCN1C[C@@H](C)[C@@H](O)[C@](C)(O)[C@H](CC)OC(=O)[C@H](C)[C@H](OC2C[C@@](C)(OC)[C@](O)(CN(C)CC)[C@H](C)O2)[C@H](C)[C@@H](O[C@@H]2O[C@H](C)C[C@H](N(C)C)[C@H]2O)[C@](C)(O)C[C@H]1C` (some centres unmarked) [syzx-213]: the MIC in data set [2] (setting [8]), in data set [3] (setting [9]), in data set [4] (setting [10]), in data set [5] (setting [11]) and in data set [6] (setting [12]) was 0.25 µg/mL (≈ 0.295 µM) each time. For the same molecule, the responders at 5 mg/kg in data set [7] (setting [13]) stood at 90%.
Turning to `CC[C@@H]1OC(=O)[C@H](C)[C@H](OC2C[C@@](C)(OC)[C@](O)(CN3CCCCC3)[C@H](C)O2)[C@@H](C)[C@@H](O[C@@H]2O[C@H](C)C[C@H](N(C)C)[C@H]2O)[C@](C)(O)C[C@@H](C)NC[C@@H](C)[C@H](O)[C@]1(C)O` (stereo partly drawn) [syzx-15, (2R,3S,4R,5S,8R,10R,11R,12S,13S,14R)-13-[(2,6-dideoxy-3-C-methyl-3-O-methyl-4-C-[piperidinylmethyl]-α-L-ribopyranosyl)oxy]-2-ethyl-3,4,10-trihydroxy-3,5,8,10,12,14-hexamethyl-11-[[3,4,6-trideoxy-3-(dimethylamino)-β-D-xylo-hexopyranosy]oxy]-1-oxa-7-azacyclopentadecan-15-one], the MIC is at most 0.25 µg/mL in data set [2] (setting [8]); 0.5 µg/mL (≈ 0.601 µM) in data set [3] (setting [9]); at most 0.25 µg/mL in data set [4] (setting [10]); at most 0.25 µg/mL in data set [5] (setting [11]); at most 0.25 µg/mL in data set [6] (setting [12]). Moreover, in data set [7] (setting [13]), the responders at 5 mg/kg is 70%.
As to `CC[C@@H]1OC(=O)[C@H](C)[C@H](OC2C[C@@](C)(OC)[C@](O)(CNCc3cnc(C)cn3)[C@H](C)O2)[C@@H](C)[C@@H](O[C@@H]2O[C@H](C)C[C@H](N(C)C)[C@H]2O)[C@](C)(O)C[C@@H](C)NC[C@@H](C)[C@H](O)[C@]1(C)O` (some centres unmarked) [syzx-65], the minimal inhibitory concentration (MIC) was at most 0.25 µg/mL in data set [2] (setting [8]); 32 µg/mL (≈ 36.8 µM) in data set [3] (setting [9]); 1 µg/mL (≈ 1.15 µM) in data set [4] (setting [10]); at most 0.25 µg/mL in data set [5] (setting [11]); at most 0.25 µg/mL in data set [6] (setting [12]). Also, the responders at 5 mg/kg in data set [7] (setting [13]) was 90%.
Turning to `CC[C@@H]1OC(=O)[C@H](C)[C@H](OC2C[C@@](C)(OC)[C@](O)(CNC3CC3)[C@H](C)O2)[C@@H](C)[C@@H](O[C@@H]2O[C@H](C)C[C@H](N(C)C)[C@H]2O)[C@](C)(O)C[C@@H](C)NC[C@@H](C)[C@H](O)[C@]1(C)O` (stereo partly drawn) [syzx-6, (2R3S,4R5S,8R,10R,11R,12S,13S,14R)-13-[(2,6-dideoxy-3-C-methyl-3-O-methyl-4-C-[(cyclopropylamino)methyl]-α-L-ribopyranosyl)oxy]-2-ethyl-3,4,10-trihydroxy-3,5,8,10,12,14-hexamethyl-11-[[3,4,6-trideoxy-3-(dimethylamino)-β-D-xylo-hexopyranosy]oxy]-1-oso-7-azacyclopentadecan-15-one], the MIC in data set [2] (setting [8]), in data set [3] (setting [9]), in data set [4] (setting [10]), in data set [5] (setting [11]) and in data set [6] (setting [12]) was 0.125 µg/mL (≈ 0.155 µM) each time. For the same molecule, the responders at 5 mg/kg in data set [7] (setting [13]) was found to be 80%.
As to `CC[C@@H]1OC(=O)[C@H](C)[C@H](OC2C[C@@](C)(OC)[C@](O)(CNCCCOC)[C@H](C)O2)[C@@H](C)[C@@H](O[C@@H]2O[C@H](C)C[C@H](N(C)C)[C@H]2O)[C@](C)(O)C[C@@H](C)NC[C@@H](C)[C@H](O)[C@]1(C)O` (some centres unmarked) [syzx-66], the MIC in data set [2] (setting [8]) was 0.5 µg/mL (≈ 0.598 µM); in data set [3] (setting [9]), 8 µg/mL (≈ 9.57 µM); in data set [4] (setting [10]) it was at most 0.25 µg/mL; in data set [5] (setting [11]) it was at most 0.25 µg/mL; in data set [6] (setting [12]), 1 µg/mL (≈ 1.2 µM). Further, the responders at 5 mg/kg in data set [7] (setting [13]) turned out to be 80%.
Consider `CCCCNC[C@]1(O)[C@H](C)OC(O[C@@H]2[C@@H](C)[C@@H](O[C@@H]3O[C@H](C)C[C@H](N(C)C)[C@H]3O)[C@](C)(O)C[C@@H](C)NC[C@@H](C)[C@H](O)[C@](C)(O)[C@H](CC)OC(=O)[C@@H]2C)C[C@@]1(C)OC` (some centres unmarked) [syzx-2], for which the MIC was 2 µg/mL (≈ 2.44 µM) in data set [2] (setting [8]); 1 µg/mL (≈ 1.22 µM) in data set [3] (setting [9]); 2 µg/mL (≈ 2.44 µM) in data set [4] (setting [10]); 2 µg/mL (≈ 2.44 µM) in data set [5] (setting [11]); 4 µg/mL (≈ 4.88 µM) in data set [6] (setting [12]). Also, in data set [7] (setting [13]), the responders at 5 mg/kg stood at 80%.
As for `CC[C@@H]1OC(=O)[C@H](C)[C@H](OC2C[C@@](C)(OC)[C@](O)(CNCc3cccc(OC)c3)[C@H](C)O2)[C@@H](C)[C@@H](O[C@@H]2O[C@H](C)C[C@H](N(C)C)[C@H]2O)[C@](C)(O)C[C@@H](C)NC[C@@H](C)[C@H](O)[C@]1(C)O` (stereo partly drawn) [syzx-35, (2R,3S,4R,5S,8R,10R,11R,12S,13S,14R)-13-[(2,6-dideoxy-3-C-methyl-3-O-methyl-4-C-[[3-methoxybenzyl-amino]-methyl]-α-L-ribopyranosyl)oxy]-2-ethyl-3,4,10-trihydroxy-3,5,8,10,12,14-hexamethyl-11-[[3,4,6-trideoxy-3-(dimethylamino)-β-D-xylo-hexopyranosy]oxy]-1-oxa-7-azacyclopentadecan-15-one], the MIC was 0.5 µg/mL (≈ 0.566 µM) in data set [2] (Streptococcus, CVCC556, read-out: MIC values Streptococcus equines CVCC556); 0.25 µg/mL (≈ 0.283 µM) in data set [3] (Actinobacillus pleuropneumoniae, CVCC262, read-out: MIC values Actinobacillus pleuropneumoniae CVCC262); 1 µg/mL (≈ 1.13 µM) in data set [4] (Pasteurella multocida, CVCC399, read-out: MIC values Pasteurella multocida CVCC399); 0.25 µg/mL (≈ 0.283 µM) in data set [5]; 0.25 µg/mL (≈ 0.283 µM) in data set [6] (Staphylococcus aureus, CVCC26003, read-out: MIC values Staphylococcus aureus CVCC26003). The responders at 5 mg/kg in data set [7] (Streptococcus pneumoniae) was determined as 70%.
